Source: patent US20250368619A1, “SUBSTITUTED TETRAHYDROCYCLOHEPTA[E]INDOLE DERIVATIVES, PROCESSES FOR THEIR PREPARATION AND THERAPEUTIC USES THEREOF” (SANOFI, priority 2022, published 2025)

Biological target: T1, ERα (Homo sapiens, UniProt P03372)
T1 construct: host or cells: MCF7
T1 sequence (P03372 1-595): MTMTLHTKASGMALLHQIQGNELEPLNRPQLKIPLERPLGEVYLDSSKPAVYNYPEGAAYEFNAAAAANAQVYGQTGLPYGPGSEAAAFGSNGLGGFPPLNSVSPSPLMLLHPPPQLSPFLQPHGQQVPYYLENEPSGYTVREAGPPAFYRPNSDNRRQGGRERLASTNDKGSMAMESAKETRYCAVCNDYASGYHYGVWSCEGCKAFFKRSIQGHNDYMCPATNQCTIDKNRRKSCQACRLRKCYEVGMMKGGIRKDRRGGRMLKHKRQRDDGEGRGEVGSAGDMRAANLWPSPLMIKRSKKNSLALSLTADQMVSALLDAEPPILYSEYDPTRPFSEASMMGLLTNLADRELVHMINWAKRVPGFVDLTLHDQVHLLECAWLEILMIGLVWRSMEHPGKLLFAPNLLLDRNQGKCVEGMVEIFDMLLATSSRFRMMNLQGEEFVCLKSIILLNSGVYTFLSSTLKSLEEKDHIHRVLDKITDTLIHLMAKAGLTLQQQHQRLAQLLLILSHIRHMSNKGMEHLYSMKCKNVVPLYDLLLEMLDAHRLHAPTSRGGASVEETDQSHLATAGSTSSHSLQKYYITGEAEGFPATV
Assay: Estrogen receptor degradation activity: breast cancer cell ERα in cell western assay in MCF7 cells
Format: cell-based
Settings: 4 hours, relative to fulvestrant 0.1 μM positive control
Protocol: Test: Estrogen receptor degradation activity
Said test involves measuring the in vitro degradation activity of the compounds of the table 1.
The measurements of the degradation activities were made using a breast cancer cell ERα in cell western assay as described hereunder.
MCF7 cells (ATCC) were seeded in 384 wells microplate (collagen coated) at a concentration of 10000 cells/30 μL per well in red phenol free MEM alpha medium (invitrogen) containing 5% charcoal dextran striped FBS. The following day, 9 points serial 1:5 dilution of each compound was added to the cells in 2.5 μL at final concentrations ranging from 0.3-0.0000018 μM (in table 2), or 0.1 μM for fulvestrant (using as positive control). At 4 hours post compound addition the cells were fixed by adding 25 μL of formalin (final concentration 5% formalin containing 0.1% triton) for 10 minutes at RT and then washed twice with PBS. Then, 50 μL of LI-COR blocking buffer containing 0.1% Triton was added to plate for 30 minutes at RT. LI-COR blocking buffer was removed and cells were incubated overnight at cold room with 50 μL anti-ER rabbit monoclonal antibody (Thermo scientific MA1-39540) diluted at 1:1000 in LI-COR blocking buffer containing 0.1% tween-20. Wells which were treated with blocking buffer but no antibody were used as background control. Wells were washed twice with PBS (0.1% tween-20) and incubated at 37° C. for 60 minutes in LI-COR (0.1% tween-20) containing goat anti-rabbit antibody Alexa 488 (1:1000) and Syto-64 a DNA dye (2 μM final concentration). Cells were then washed 3 times in PBS and scanned in ACUMEN explorer (TTP-Labtech). Integrated intensities in the green fluorescence and red fluorescence were measured to determine the levels of ERα and DNA respectively.
The degradation activity with respect to estrogen receptors in this test is given by the concentration which degrades 50% of the estrogen receptor (or IC50) in nM.
The % of ERα levels decrease were determined as follows: % inhibition=100*(1−(sample−fulvestrant:DMSO−fulvestrant)).

Compared with FCCCN1CC[C@H](Oc2ccc(C3=C(C4=CCC(F)(F)CC4)CCCc4c3ccc3[nH]ccc43)cc2)C1 [Compound 5, (S)-7-(4,4-difluorocyclohex-1-en-1-yl)-6-(4-((1-(3-fluoropropyl)pyrrolidin-3-yl)oxy)phenyl)-3,8,9,10-tetrahydrocyclohepta[e]indole], Cc1c(Cl)cccc1C1=C(c2ccc(N[C@H]3CCN(CCCF)C3)cc2)c2ccc3[nH]ccc3c2CCC1 [Compound 28, (S)-N-(4-(7-(3-chloro-2-methylphenyl)-3,8,9,10-tetrahydrocyclohepta[e]indol-6-yl)phenyl)-1-(3-fluoropropyl)pyrrolidin-3-amine] is lower in “% Degradation At 0.3 μM” value: 95% for the first, 91% for the second.

Compared with O=C(O)C(F)(F)F.O=C(O)c1ccc(C2=C(c3ccc(CC4CN(CCCF)C4)cc3)c3ccc4[nH]ccc4c3CCC2)cc1 [Compound 23, 4-(6-(4-((1-(3-fluoropropyl)azetidin-3-yl)methyl)phenyl)-3,8,9,10-tetrahydrocyclohepta[e]indol-7-yl)benzoic acid, 2,2,2-trifluoroacetic acid], COc1cc(C2=C(c3ccc(CC4CN(CCCF)C4)cc3)c3ccc4[nH]ccc4c3CCC2)ccn1 [Compound 14, 6-(4-((1-(3-fluoropropyl)azetidin-3-yl)methyl)phenyl)-7-(2-methoxypyridin-4-yl)-3,8,9,10-tetrahydrocyclohepta[e]indole] is higher in “% Degradation At 0.3 μM” value: 80% for the first, 91% for the second.

Cc1c(Cl)cccc1C1=C(c2ccc(/C=C3/CCN(CCCF)C3)cc2)c2ccc3[nH]ccc3c2CCC1 [Compound 29, (Z)-7-(3-chloro-2-methylphenyl)-6-(4-((1-(3-fluoropropyl)pyrrolidin-3-ylidene)methyl)phenyl)-3,8,9,10-tetrahydrocyclohepta[e]indole] was tested, and the “% Degradation At 0.3 μM” value was 91%.
